Values belong to the molecule of their own block, whether it stands above or below them.
What was measured:
Type in all cases: physicochemical
[1] = Test Example 1: absorption and fluorescence intensity with and without the alkylcarboxyaminocyanuric chloride substituent
Protocol: According to [Chemical Formula 1] disclosed herein, compounds to which a substituent including cyanuric chloride bound with an aminoalkylcarboxylic acid is introduced are prepared and optical properties thereof are compared with each other. Glycine is used as an aminoalkylcarboxylic acid to obtain Compound 1 (Example 1.7) disclosed herein, and the optical properties thereof are compared with those of the compound (Example 1.3) including no alkylcarboxyamino cyanuric chloride substituent introduced thereto.
At the same concentration, the compounds of Example 1.7 and Example 1.3 are determined for absorption wavelength and intensity and the results are shown in FIG. 1A. […] To perform accurate comparison of fluorescence wavelength intensity, the concentration of each of the compounds of Example 1.7 and Example 1.3 is corrected so that they may have the same absorption intensity, and then the fluorescence wavelength and intensity of each compound are determined.

[2] = Test Example 4 (1),(2): fluorescence intensity of free dye versus reference fluorescent dye
Protocol: (§1) Compound 20 and a reference fluorescent dye (Alexa Fluor 647 NHS ester) are compared with each other in terms of fluorescence intensity. DMF is added to the two types of fluorescent dyes to provide stock solutions and each solution is adjusted to the same concentration of 10 mg/mL. Next, pH 7.4 10 mM phosphate buffered saline (hereinafter, 1×PBS) is used to dilute the solution to a concentration of 19.5 nM and fluorescence is determined under the setting of Excitation 560 nm. The fluorescence determination is carried out by using LS 55 Fluorescence spectrometer (Perkin Elmer).
as §1, with “18” for “20”, “555” for “647”, “552” for “560”

[3] = Test Example 4 (3),(4): relative quantum yield based on Rhodamine 6G; settings: pH 7.4 1xPBS
Protocol: (§2) Based on Rhodamine 6G (TCI), relative quantum yield of Compound 20 and that of the reference fluorescent dye (Alexa Fluor 647 NHS ester) are determined. DMF is added to the two types of fluorescent dyes and Rhodamine 6G to 10 mg/mL to provide stock solutions. Next, pH 7.4 1×PBS is used to dilute the solutions to a concentration of 10 μM and absorption and fluorescence are determined. Herein, 1/2 dilution is carried out from a concentration of 10 μM and then absorption and fluorescence are determined 10 times totally up to the sample of 1/512× concentration. The determined values are introduced to the following Mathematical Formula 1 to analyze the relative quantum yield and the results are shown in the following Table 3 and FIG. 6.
[formula] • Q=Quantum Yield • I=Fluorophore • OD=Absorbance • SubscriptR=Rodamine 6G
as §2, with “18” for “20”, “555” for “647”, “to” for “to the following”, “yield. The” for “yield and the results are shown in the”, “4” for “3”, “7 show the relative quantum yield of each dye.” for “6.”

[4] = Test Example 2: fluorescence intensity as a function of concentration in PBS (plate reader), same absorption intensity; design: increment of fluorescence intensity compared to Compound 19: dose or concentration left out as unconfirmed
Protocol: To determine a change in optical properties when the compound of [Chemical Formula 1] disclosed herein is modified to allow labeling of a biomolecule, an N-succinimidyl group is introduced to each of Compound 9.7 and Compound 10 to obtain Compound 19 and Compound 20, respectively, in the same manner as described hereinabove. Then, fluorescence characteristics are compared at the same absorption wavelength intensity.
Each of Compound 19 and Compound 20 is added to 5 mL of PBS at a concentration of 10 mg/mL at room temperature to provide samples. Next, 1 mL of PBS is added to 2 mL of each sample and the intensity is measured as a function of absorption wavelength. After adjusting the concentration of a sample so that the absorption intensity (Abs at 650 nm) of Compound 19 may be the same as that of Compound 20 from the resultant data, the sample is diluted many times and the fluorescence thereof is determined by using a plate reader (Perkin Elmer).

- fluorescence intensity versus reference fluorescent dye (Alexa Fluor 555 NHS ester) ([2]; 19.5 nM in 1xPBS pH 7.4, Excitation 552 nm, FIG. 5): relatively higher fluorescence intensity
- Relative quantum yield (%) ([3]; 552 compound): 13.34%
Molecule: CC1(CCCCCC(=O)NCCCNc2nc(Cl)nc(NCCCCCC(=O)ON3C(=O)CCC3=O)n2)C(/C=C/C=C2/N(CCCS(=O)(=O)O)c3ccc(S(=O)(=O)O)cc3C2(C)C)=[N+](CCCS(=O)(=O)O)c2ccc(S(=O)(=O)[O-])cc21 (stereo not drawn) [Compound 18]

- Average fluorescence intensity (at 665 nm) ([4]; 3 nM in PBS): 412.0
- Average fluorescence intensity (at 665 nm) ([4]; 6 nM in PBS): 810.7
- Average fluorescence intensity (at 665 nm) ([4]; 12 nM in PBS): 1673.0
- Average fluorescence intensity (at 665 nm) ([4]; 25 nM in PBS): 3336.7
- Average fluorescence intensity (at 665 nm) ([4]; 49 nM in PBS): 6483.7
- Average fluorescence intensity (at 665 nm) ([4]; 98 nM in PBS): 12523.0
- Average fluorescence intensity (at 665 nm) ([4]; 196 nM in PBS): 24679.7
- Average fluorescence intensity (at 665 nm) ([4]; 393 nM in PBS): 48611.7
- Average fluorescence intensity (at 665 nm) ([4]; 785 nM in PBS): 91308.7
- Average fluorescence intensity (at 665 nm) ([4]; 1570 nM in PBS): 160778.3
- Average fluorescence intensity (at 665 nm) ([4]; 3140 nM in PBS): 240494.7
- Average fluorescence intensity (at 665 nm) ([4]; 6280 nM in PBS): 308345.7
Molecule: CC1(CCCCCC(=O)ON2C(=O)CCC2=O)C(/C=C/C=C/C=C2/N(CCCS(=O)(=O)O)c3ccc(S(=O)(=O)O)cc3C2(C)C)=[N+](CCCS(=O)(=O)[O-])c2ccc(S(=O)(=O)O)cc21 (stereo not drawn) [Compound 19]

- Relative quantum yield (%) ([3]; 552 compound): 5.64%
Molecule: Alexa Fluor 555 NHS ester [reference compound]

The remaining lines, values behind:

Molecule: CC[N+]1=C(/C=C/C=C2/N(CCCCCC(=O)NNc3nc(Cl)nc(NCC(=O)O)n3)c3ccc(S(=O)(=O)O)cc3C2(C)C)C(C)(C)c2cc(S(=O)(=O)[O-])ccc21 [Compound 1]
- intensity of fluorescence wavelength relative to Example 1.3 ([1]; concentration corrected to same absorption intensity, FIG. 1B): approximately two times higher

Molecule: CC1(CCCCCC(=O)NCCCNc2nc(Cl)nc(NCCCCCC(=O)ON3C(=O)CCC3=O)n2)C(/C=C/C=C/C=C2/N(CCCS(=O)(=O)O)c3ccc(S(=O)(=O)O)cc3C2(C)C)=[N+](CCCS(=O)(=O)[O-])c2ccc(S(=O)(=O)O)cc21 (stereo not drawn) [Compound 20]
- Average fluorescence intensity (at 665 nm) ([4]; 3 nM in PBS): 313.3
- Average fluorescence intensity (at 665 nm) ([4]; 6 nM in PBS): 721.3
- Average fluorescence intensity (at 665 nm) ([4]; 12 nM in PBS): 1454.7
- Average fluorescence intensity (at 665 nm) ([4]; 25 nM in PBS): 2994.3
- Average fluorescence intensity (at 665 nm) ([4]; 49 nM in PBS): 6693.3
- Average fluorescence intensity (at 665 nm) ([4]; 98 nM in PBS): 13859.7
- Average fluorescence intensity (at 665 nm) ([4]; 196 nM in PBS): 29396.3
- Average fluorescence intensity (at 665 nm) ([4]; 393 nM in PBS): 59756.7
- Average fluorescence intensity (at 665 nm) ([4]; 785 nM in PBS): 118049.0
- Average fluorescence intensity (at 665 nm) ([4]; 1570 nM in PBS): 209850.3
- Average fluorescence intensity (at 665 nm) ([4]; 3140 nM in PBS): 321865.0
- Average fluorescence intensity (at 665 nm) ([4]; 6280 nM in PBS): 418428.3
- increment of fluorescence intensity compared to Compound 19 ([4]; FIG. 2): about 40%
- fluorescence intensity versus reference fluorescent dye (Alexa Fluor 647 NHS ester) ([2]; 19.5 nM in 1xPBS pH 7.4, Excitation 560 nm, FIG. 4): relatively higher fluorescence intensity
- Relative quantum yield (%) ([3]; 650 compound): 11.70%

Molecule: CC[N+]1=C(/C=C/C=C2/N(CCCCCC(=O)O)c3ccc(S(=O)(=O)O)cc3C2(C)C)C(C)(C)c2cc(S(=O)(=O)[O-])ccc21 [Example 1.3]
- absorption wavelength intensity ([1]; same concentration, Example 1.7 versus Example 1.3, FIG. 1A): slightly higher

Molecule: Alexa Fluor 647 NHS ester [reference compound]
- Relative quantum yield (%) ([3]; 650 compound): 7.79%
